The target of the assay is SARS2 coronavirus 3CL protease (Severe acute respiratory syndrome coronavirus 2, UniProt P0DTD1). In words: biochemical. As to conditions: 5 nM enzyme, 30 min pre-incubation with compound, 15 μM peptide substrate, 4 h at room temperature; read-out: FRET Potency (nM); IC50 values in the SARS2 3CLPro FRET assay.
Consider `CNC(=O)C(=O)[C@H](C[C@@H]1C[C@@H](C)NC1=O)NC(=O)c1cc(F)cnc1NC(=O)c1cccc(C(F)(F)F)c1` [Example 28, 5-fluoro-N-[(1S)-3-(methylamino)-1-[[(3S,5R)-5-methyl-2-oxo-pyrrolidin-3-yl]methyl]-2,3-dioxo-propyl]-2-[[3-(trifluoromethyl)benzoyl]amino]pyridine-3-carboxamide], for which the IC50 came to 13.2 nM.
For `O=C(CCC(F)(F)F)Nc1ccc(Cl)cc1C(=O)N[C@@H](C[C@@H]1CCNC1=O)C(=O)C(=O)NC1CC1` [Example 29, 5-chloro-N-[(1S)-3-(cyclopropylamino)-2,3-dioxo-1-[[(3S)-2-oxopyrrolidin-3-yl]methyl]propyl]-2-(4,4,4-trifluorobutanoylamino) benzamide], the IC50 came out at 13.1 nM.
On to `O=C(NC1CC1)C(=O)[C@H](C[C@@H]1CCNC1=O)NC(=O)c1cc(Cl)ccc1NC(=O)C12CC(F)(C1)C2` [Example 30, N-[4-chloro-2-[[(1S)-3-(cyclopropylamino)-2,3-dioxo-1-[[(3S)-2-oxopyrrolidin-3-yl]methyl]propyl]carbamoyl]phenyl]-3-fluoro-bicyclo[1.1.1]pentane-1-carboxamide], for which the IC50 was 12.9 nM.
Turning to `CNC(=O)C(=O)[C@H](C[C@@H]1C[C@@H](C)NC1=O)NC(=O)c1cc(Cl)ccc1NC(=O)OC(C)C` [Example 31, isopropyl N-[4-chloro-2-[[(1S)-3-(methylamino)-1-[[(3S,5R)-5-methyl-2-oxo-pyrrolidin-3-yl]methyl]-2,3-dioxo-propyl]carbamoyl]phenyl] carbamate], the IC50 was found to be 12.4 nM.
With `C[C@@H]1C[C@@H](C[C@H](NC(=O)c2cc(C#N)ccc2NC(=O)c2cccc(F)c2)C(=O)C(=O)NC2CC2)C(=O)N1` [Example 32, 5-cyano-N-[(1S)-3-(cyclopropylamino)-1-[[(3S,5R)-5-methyl-2-oxo-pyrrolidin-3-yl]methyl]-2,3-dioxo-propyl]-2-[(3-fluorobenzoyl)amino] benzamide], the IC50 was 12.3 nM.
Consider `C[C@@H]1C[C@@H](C[C@H](NC(=O)c2cc(Cl)c(F)cc2NC(=O)C2(C(F)(F)F)CC2)C(=O)C(=O)NC2CC2)C(=O)N1` [Example 33, 5-chloro-N-[(1S)-3-(cyclopropylamino)-1-[[(3S,5R)-5-methyl-2-oxo-pyrrolidin-3-yl]methyl]-2,3-dioxo-propyl]-4-fluoro-2-[[1-(trifluoromethyl)cyclopropane-carbonyl]amino]benzamide], for which the IC50 is 12.2 nM.
Regarding `CNC(=O)C(=O)[C@H](C[C@@H]1C[C@@H](C)NC1=O)NC(=O)c1cc(Cl)ccc1NC(=O)C1(C(F)(F)F)CC1` [Example 34, 5-chloro-N-[(1S)-3-(methylamino)-1-[[(3S,5R)-5-methyl-2-oxo-pyrrolidin-3-yl]methyl]-2,3-dioxo-propyl]-2-[[1-(trifluoromethyl)cyclopropane-carbonyl]amino]benzamide], the IC50 came out at 11.2 nM.
With `C[C@@H]1C[C@@H](C[C@H](NC(=O)c2cc(Cl)ccc2NC(=O)C2(C(F)(F)F)CCC2)C(=O)C(=O)NC2CC2)C(=O)N1` [Example 35, 5-chloro-N-[(1S)-3-(cyclopropylamino)-1-[[(3S,5R)-5-methyl-2-oxo-pyrrolidin-3-yl]methyl]-2,3-dioxo-propyl]-2-[[1-(trifluoromethyl)cyclobutanecarbonyl]amino]benzamide], the IC50 amounted to 11.1 nM.
With `O=C(NC1CC1)C(=O)[C@H](C[C@@H]1CCNC1=O)NC(=O)c1cc(Cl)ccc1NC(=O)C1(CC(F)(F)F)CC1` [Example 36, 5-chloro-N-[(1S)-3-(cyclopropylamino)-2,3-dioxo-1-[[(3S)-2-oxopyrrolidin-3-yl]methyl]propyl]-2-[[1-(2,2,2-trifluoroethyl)cyclopropane-carbonyl]amino]benzamide], the IC50 worked out at 10.7 nM.
For `O=C(NC1CC1)C(=O)[C@H](C[C@@H]1CCNC1=O)NC(=O)c1cc(Cl)ccc1NC(=O)C12CC(F)(C1)C2` [Example 37, N-[4-chloro-2-[[(1S)-3-(cyclopropylamino)-2,3-dioxo-1-[[(3S)-2-oxopyrrolidin-3-yl]methyl]propyl]carbamoyl]phenyl]-3-fluoro-bicyclo[1.1.1]pentane-1-carboxamide], the IC50 is 10.7 nM.
For `O=C(CC(F)(F)F)Nc1ccc(Cl)cc1C(=O)N[C@@H](C[C@@H]1CCNC1=O)C(=O)C(=O)NC1CC1` [Example 38, 5-chloro-N-[(1S)-3-(cyclopropylamino)-2,3-dioxo-1-[[(3S)-2-oxopyrrolidin-3-yl]methyl]propyl]-2-(3,3,3-trifluoropropanoylamino) benzamide], the IC50 is 10.5 nM.
Regarding `C[C@@H]1C[C@@H](C[C@H](NC(=O)c2cc(Cl)cnc2NC(=O)C2CCC(F)(F)CC2)C(=O)C(=O)NC2CC2)C(=O)N1` [Example 39, 5-chloro-N-[(1S)-3-(cyclopropylamino)-1-[[(3S,5R)-5-methyl-2-oxo-pyrrolidin-3-yl]methyl]-2,3-dioxo-propyl]-2-[(4,4-difluorocyclohexanecarbonyl)amino]pyridine-3-carboxamide], the IC50 was found to be 10.3 nM.
Take `C[C@@H]1C[C@@H](C[C@H](NC(=O)c2cc(Cl)ccc2NC(=O)c2cccc(C(F)(F)F)n2)C(=O)C(=O)NC2CC2)C(=O)N1` [Example 40]: the IC50 came out at 10 nM.
For the compound `CNC(=O)C(=O)[C@H](C[C@@H]1C[C@@H](C(F)(F)F)NC1=O)NC(=O)c1cc(Cl)ccc1NC(=O)C1CC(F)(F)C1` [Example 41, 5-chloro-2-[(3,3-difluorocyclobutanecarbonyl)amino]-N-[(1S)-3-(methylamino)-2,3-dioxo-1-[[(3R,5S)-2-oxo-5-(trifluoromethyl)pyrrolidin-3-yl]methyl]propyl]benzamide], the IC50 is 9.9 nM.
Then `C[C@@H]1C[C@@H](C[C@H](NC(=O)c2cc(Cl)ccc2NC(=O)CC(F)(F)F)C(=O)C(=O)NC2CC2)C(=O)N1` [Example 42, 5-chloro-N-[(1S)-3-(cyclopropylamino)-1-[[(3S,5R)-5-methyl-2-oxo-pyrrolidin-3-yl]methyl]-2,3-dioxo-propyl]-2-(3,3,3-trifluoropropanoylamino) benzamide], with 9.8 nM; and `CNC(=O)C(=O)[C@H](C[C@@H]1C[C@@H](C(F)(F)F)NC1=O)NC(=O)c1cc(Cl)cnc1NC(=O)c1cccc(C(F)(F)F)c1` [Example 43, 5-chloro-N-[(1S)-3-(methylamino)-2,3-dioxo-1-[[(3R,5S)-2-oxo-5-(trifluoromethyl)pyrrolidin-3-yl]methyl]propyl]-2-[[3-(trifluoromethyl)benzoyl]amino]pyridine-3-carboxamide], with 9.6 nM.
Then `C[C@@H]1C[C@@H](C[C@H](NC(=O)c2cc(C(F)F)ccc2NC(=O)c2cccc(C(F)(F)F)c2)C(=O)C(=O)NC2CC2)C(=O)N1` [Example 44, N-[(1S)-3-(cyclopropylamino)-1-[[(3S,5R)-5-methyl-2-oxo-pyrrolidin-3-yl]methyl]-2,3-dioxo-propyl]-5-(difluoromethyl)-2-[[3-(trifluoromethyl)benzoyl]amino]benzamide], with 9.4 nM; and `CNC(=O)C(=O)[C@H](C[C@@H]1C[C@@H](C)NC1=O)NC(=O)c1cc(Cl)ccc1NC(=O)c1cccc(C(F)(F)F)c1` [Example 45, 5-chloro-N-[(1S)-3-(methylamino)-1-[[(3S,5R)-5-methyl-2-oxo-pyrrolidin-3-yl]methyl]-2,3-dioxo-propyl]-2-[[3-(trifluoromethyl)benzoyl]amino]benzamide], with 9.4 nM.
In the case of `CNC(=O)C(=O)[C@H](C[C@@H]1C[C@@H](C)NC1=O)NC(=O)c1cc(Cl)ccc1NC(=O)C12CC(C(F)(F)F)(C1)C2` [Example 46, N-[4-chloro-2-[[(1S)-3-(methylamino)-1-[[(3S,5R)-5-methyl-2-oxo-pyrrolidin-3-yl]methyl]-2,3-dioxo-propyl]carbamoyl]phenyl]-3-(trifluoromethyl)bicyclo[1.1.1] pentane-1-carboxamide], the IC50 amounted to 8.9 nM.
Take `CNC(=O)C(=O)[C@H](C[C@@H]1CCNC1=O)NC(=O)c1cc(Cl)ccc1NC(=O)C12CC(F)(C1)C2` [Example 47]: the IC50 amounted to 8.8 nM.
Then `C[C@@H]1C[C@@H](C[C@H](NC(=O)c2cc(Cl)ccc2NC(=O)c2cccc(C(F)(F)F)c2)C(=O)C(N)=O)C(=O)N1` [Example 48, N-[(1S)-3-amino-1-[[(3S,5R)-5-methyl-2-oxo-pyrrolidin-3-yl]methyl]-2,3-dioxo-propyl]-5-chloro-2-[[3-(trifluoromethyl)benzoyl]amino]benzamide], with 8.8 nM.
As for `C[C@@H]1C[C@@H](C[C@H](NC(=O)c2cc(F)c(F)cc2NC(=O)c2ccnc(C(F)(F)F)c2)C(=O)C(=O)NC2CC2)C(=O)N1` [Example 49, N-[2-[[(1S)-3-(cyclopropylamino)-1-[[(3S,5R)-5-methyl-2-oxo-pyrrolidin-3-yl]methyl]-2,3-dioxo-propyl]carbamoyl]-4,5-difluoro-phenyl]-2-(trifluoromethyl)pyridine-4-carboxamide], the IC50 was determined as 8.8 nM.
Take `CNC(=O)C(=O)[C@H](C[C@@H]1C[C@@H](C)NC1=O)NC(=O)c1cc(Cl)cnc1NC(=O)C12CC(F)(C1)C2` [Example 50, 5-chloro-2-[(3-fluorobicyclo[1.1.1]pentane-1-carbonyl)amino]-N-[(1S)-3-(methylamino)-1-[[(3S,5R)-5-methyl-2-oxo-pyrrolidin-3-yl]methyl]-2,3-dioxo-propyl]pyridine-3-carboxamide]: the IC50 was 8.7 nM.
As to `O=C(NC1CC1)C(=O)[C@H](C[C@@H]1CCNC1=O)NC(=O)c1cc(Cl)ccc1NC(=O)C(F)(F)F` [Example 51, 5-chloro-N-[(1S)-3-(cyclopropylamino)-2,3-dioxo-1-[[(3S)-2-oxopyrrolidin-3-yl]methyl]propyl]-2-[(2,2,2-trifluoroacetyl)amino] benzamide], the IC50 is 8.6 nM.
Regarding `C[C@@H]1C[C@@H](C[C@H](NC(=O)c2cc(Cl)cnc2NC(=O)CCC(F)(F)F)C(=O)C(=O)NC2CC2)C(=O)N1` [Example 52, 5-chloro-N-[(1S)-3-(cyclopropylamino)-1-[[(3S,5R)-5-methyl-2-oxo-pyrrolidin-3-yl]methyl]-2,3-dioxo-propyl]-2-(4,4,4-trifluorobutanoylamino) pyridine-3-carboxamide], the IC50 is 8.4 nM.

These data come from US20240228535A1 (priority 2022, published 2024).
